IC50 and EC50 data for 17 compounds are collected here from US20230203003A1, “Notch Inhibitors and Uses Thereof” (StemSynergy Therapeutics, Inc., priority 2020, published 2023).

Where a name gives a salt, the structure may show the parent alone. Read-outs that look alike come from different tables or passages of the source.

The target of one assay is T1, hNotch1ICD (Homo sapiens, UniProt P46531).
T1 construct: pLV[Tet]-Puro-TRE3G>Notch1-ICD; expressed in transfected cells; host or cells: 293A cells
T1 sequence (P46531 1754-2555 limits assumed): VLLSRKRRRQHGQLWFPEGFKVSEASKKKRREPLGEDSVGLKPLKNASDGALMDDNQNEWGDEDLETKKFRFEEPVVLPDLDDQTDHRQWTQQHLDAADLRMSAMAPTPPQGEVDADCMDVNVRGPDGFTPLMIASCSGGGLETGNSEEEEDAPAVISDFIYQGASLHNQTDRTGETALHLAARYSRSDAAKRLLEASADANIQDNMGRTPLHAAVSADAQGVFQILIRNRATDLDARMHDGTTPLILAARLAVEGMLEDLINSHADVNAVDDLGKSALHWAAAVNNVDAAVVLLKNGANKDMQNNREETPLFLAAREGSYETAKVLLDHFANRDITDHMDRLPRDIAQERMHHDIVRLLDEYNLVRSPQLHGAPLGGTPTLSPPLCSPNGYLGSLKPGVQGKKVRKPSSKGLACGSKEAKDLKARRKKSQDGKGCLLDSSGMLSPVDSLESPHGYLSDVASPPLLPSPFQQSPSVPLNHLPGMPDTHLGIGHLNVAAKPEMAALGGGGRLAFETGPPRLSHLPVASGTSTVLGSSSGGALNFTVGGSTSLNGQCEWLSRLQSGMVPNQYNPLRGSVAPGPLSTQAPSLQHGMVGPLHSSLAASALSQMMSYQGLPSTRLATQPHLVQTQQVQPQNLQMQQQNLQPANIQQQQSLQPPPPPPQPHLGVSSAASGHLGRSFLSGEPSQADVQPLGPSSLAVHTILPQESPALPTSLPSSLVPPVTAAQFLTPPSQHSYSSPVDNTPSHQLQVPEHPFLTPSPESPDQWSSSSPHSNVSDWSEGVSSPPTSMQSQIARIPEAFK
Nature of the assay: Notch1 Reporter Assay (Dox-inducible Notch1-ICD, CSL-responsive luciferase in 293A cells). In kind it is cell-based. The note with it: read-out: Notch1 Reporter Assay IC50. The protocol:
293A cells expressing 1) pCMV-Tet-On 3G, 2) pLV[Tet]-Puro-TRE3G>Notch1-ICD, 3) pLV[Tet]-Puro-TRE3G>Notch2-ICD, 4) pLV[Tet]-Puro-TRE3G>Notch3-ICD, and 5) pCSL-RElement-Luc were used. When Doxycycline is added, the Tet-ON gene activates expression of hNotch1ICD, which together with endogenous NTC components binds to CSL responsive elements (pCSL-RElement-Luc) and expresses luciferase. 1 ×× 10^4 cells are plated in 100 µL (96-well format). 24 h later, compounds (10 mM stock in DMSO) are diluted in DMSO to 200X, then added (5 ul into 1 mL) to cell culture media containing 50 ng/mL Dox. This is then added 1:1 to cells. Final DMSO = 0.25%, Dox = 25 ng/mL. After 24 h, media is discarded, and cells are lysed in passive lysis buffer (Promega). Cells are rocked at room temperature for 15 min and then lysate is divided for luciferase assay (Luciferase Assay System, Promega) and cell viability (CellTiter Glo 2.0, Promega). Raw luciferase is normalized to cell viability, and then scaled to DMSO wells. Results are analyzed and IC50′s are determined in GraphPad by nonlinear regression curve fitting (4 parameter) of dose response curves.
(In general: Reporter assays use an easily measured gene product as a stand-in for the process of interest.)

For assay [1], the system named is OE33 Esophageal Adenocarcinoma cell line. Nature of the assay: OE33 Colony Formation Assay. It counts as cell-based. The settings on record: OE33 cells, 200 cells/well, 7 days, CellTiter-Glo. The protocol: OE33 Colony Formation Assay
The OE33 Esophageal Adenocarcinoma cell line was cultured and plated into 96-well tissue culture plates under sparse conditions (200 cells/well). Test compounds were serially diluted in DMSO and then into culture media (final DMSO concentration = 0.1%). Compound/media was then added to cells every 48 hours for a total of 7 days. Clonogenic growth was assessed using the CellTiter-Glo reagent, according to manufacturer (Promega) specifications. Percent inhibition was calculated as the percent of luminescence normalized to control (0.1% DMSO) wells. Nonlinear regression curve fitting was performed using GraphPad Prism software to determine EC50′s.
For orientation: ATP-based viability assays read luminescence as a measure of living cells.

Setting [2] is: 293A cells, 24 h, luciferase normalized to cell viability.
Where [3] appears, read: value printed in the synthesis heading of the compound.

Broadly, the IC50 is the point on the concentration scale where inhibition reaches its midpoint. In general, EC50 refers to the concentration that produces a half-maximal response. High values mean lower potency in that assay, low ones higher potency in that assay. As for `CC(C)Cn1c(=O)c(C(=O)Nc2ccccc2N2CCN(C)CC2)c(O)c2ccccc21` [568(02)], the IC50 at hNotch1ICD (setting [2]) worked out at 6.8 µM. In assay [1] (Homo sapiens, OE33, 168 h), this compound showed an EC50 of 2.6 µM. For the compound `CC(C)Cn1c(=O)c(C(=O)Nc2cccc(N(C)C3CC3)c2)c(O)c2ccccc21` [compound 561, N-(3-(cyclopropyl(methyl)amino)phenyl)-4-hydroxy-1-isobutyl-2-oxo-1,2-dihydroquinoline-3-carboxamide], the IC50 at hNotch1ICD (setting [2]) amounted to 19.1 µM. In assay [1] (Homo sapiens, OE33, 168 h), the EC50 is 3.9 µM. For `CC(C)Cn1c(=O)c(C(=O)Nc2ccon2)c(O)c2ccccc21` [compound 525, 4-hydroxy-1-isobutyl-N-(isoxazol-3-yl)-2-oxo-1,2-dihydroquinoline-3-carboxamide] the same measures were 13.8 µM and 7.4 µM. On to `CC(C)Cn1c(=O)c(C(=O)Nc2ccc(F)cc2N2CCN(C)CC2)c(O)c2ccccc21` [570(02)], for which, at hNotch1ICD (setting [2]), the half-inhibitory concentration (IC50) amounted to 5.6 µM. In assay [1] (Homo sapiens, OE33, 168 h), this compound displayed an EC50 of 2 µM. `CC(C)Cn1c(=O)c(C(=O)Nc2ccc(N3CCN(C)CC3)c(F)c2)c(O)c2ccccc21` [572(02)] had an EC50 in assay [1] (Homo sapiens, OE33, 168 h) of 2.2 µM. This counts as single-digit micromolar.

On to `CC(C)Cn1c(=O)c(C(=O)Nc2cc(F)ccc2N2CCN(C)CC2)c(O)c2ccccc21` [571(02)], for which the half-inhibitory concentration (IC50) at hNotch1ICD (setting [2]) came to 7.9 µM. In assay [1] (Homo sapiens, OE33, 168 h), this compound registered an EC50 of 2.5 µM. `CC(C)Cn1c(=O)c(C(=O)Nc2cccc(F)c2)c(O)c2c(N3CCNCC3)cccc21` [SSTN-587_HCl salt, N-(3-fluorophenyl)-4-hydroxy-1-isobutyl-2-oxo-5-(piperazin-1-yl)-1,2-dihydroquinoline-3-carboxamide hydrochloride salt]: the concentration for half-maximal inhibition (IC50) on hNotch1ICD (setting [2]) turned out to be 3.8 µM; at hNotch1ICD (setting [3]), 3.76 µM. The same compound had a concentration giving a half-maximal response (EC50) in assay [1] (Homo sapiens, OE33, 168 h) of 1.7 µM. With `CC(C)Cn1c(=O)c(C(=O)Nc2cccc(N3CCNCC3)c2)c(O)c2ccccc21` [compound 552, 4-hydroxy-1-isobutyl-2-oxo-N-(3-(piperazin-1-yl)phenyl)-1,2-dihydroquinoline-3-carboxamide trifluoro aceticacid], the 50% inhibitory concentration (IC50) on hNotch1ICD (setting [2]) was determined as 4.3 µM. In addition, the EC50 in assay [1] (Homo sapiens, OE33, 168 h) came to 0.9 µM. For the compound `CC(C)Cn1c(=O)c(C(=O)Nc2cnn(C)c2)c(O)c2ccccc21` [compound 534, 4-hydroxy-1-isobutyl-N-(1-methyl-1H-pyrazol-4-yl)-2-oxo-1,2-dihydroquinoline-3-carboxamide], at hNotch1ICD (setting [2]), the 50% inhibitory concentration (IC50) came to 11.3 µM. In assay [1] (Homo sapiens, OE33, 168 h), this compound displayed an EC50 of 2.5 µM. For `CC(C)Cn1c(=O)c(C(=O)Nc2cccc(F)c2)c(O)c2cc(N3CCN(C)CC3)ccc21` [577(02)] the same measures were 6.4 µM and 0.66 µM. Take `CC(C)Cn1c(=O)c(C(=O)Nc2ccc(F)c(N3CCN(C)CC3)c2)c(O)c2ccccc21` [584(02)]: the 50% inhibitory concentration (IC50) on hNotch1ICD (setting [2]) was 6 µM. Besides, it took 2 µM to reach a half-maximal effect in assay [1] (Homo sapiens, OE33, 168 h) (EC50). In assay [1] (listed as 452), `Cc1cccnc1NC(=O)c1c(O)c2ccccc2n(Cc2ccccc2)c1=O` [SSTN-452] gave a half-maximal effective concentration (EC50) of 1.6 µM.

Turning to `Cc1cccnc1NC(=O)c1c(O)c2ccc(N3CCN(C)CC3)cc2n(CC(C)C)c1=O` [SSTN-580_TFA salt, 4-hydroxy-1-isobutyl-7-(4-methylpiperazin-1-yl)-N-(3-methylpyridin-2-yl)-2-oxo-1,2-dihydroquinoline-3-carboxamide TFA salt], on hNotch1ICD (setting [3]), the IC50 worked out at 13.3 µM. `CC(C)Cn1c(=O)c(C(=O)Nc2cc(F)cc(N3CCN(C)CC3)c2)c(O)c2ccccc21` [583(01)]: on hNotch1ICD (setting [2]), the IC50 turned out to be 8.1 µM.

`Cc1cccnc1NC(=O)c1c(O)c2ccccc2n(Cc2ccccc2)c1=O` [SSTN-408] came in with a concentration for a half-maximal effect (EC50) in assay [1] (listed as 408) of 3.7 µM. That is a single-digit micromolar value. As for `CC(C)Cn1c(=O)c(C(=O)Nc2ccc(N3CCN(C)CC3)cc2)c(O)c2ccccc21` [SSTN-569_HCl salt, 4-hydroxy-1-isobutyl-N-(4-(4-methylpiperazin-1-yl)phenyl)-2-oxo-1,2-dihydroquinoline-3-carboxamide hydrochloride salt], at hNotch1ICD (setting [3]), the IC50 turned out to be 4.93 µM. On the same count and under the same terms, as for `CC(C)Cn1c(=O)c(C(=O)Nc2ccc(F)cc2N2CCN(C)CC2)c(O)c2ccccc21` [SSTN-570, N-(4-fluoro-2-(4-methylpiperazin-1-yl)phenyl)-4-hydroxy-1-isobutyl-2-oxo-1,2-dihydroquinoline-3-carboxamide], the figure is 6.5 µM.
